Laboratory results: article PMC10682951, “Structure-function and rational design of a spider toxin Ssp1a at human voltage-gated sodium channel subtypes” (Frontiers in Pharmacology, 2023)
pIC50: −log10 of the molar value. Bridge positions count the residues as written; N and C are the ends. Peptide text beside a SMILES is read from it.

Assays:
Format in all cases: cell-based
hNaV1.2 = molecular target: T1, hNaV1.2 (Homo sapiens, UniProt Q99250); assay: Automated whole-cell patch-clamp (QPatch 16X), hNaV1.2; conditions: HEK293 cells expressing hNaV1.2 + β1 subunit; QPatch 16X; holding −80 mV, step to 0 mV; peptide incubated 2 min; 0.1% BSA; mean, SEM and n (2-7)
T1 construct: host or cells: HEK293
T1 sequence (Q07699 19-218): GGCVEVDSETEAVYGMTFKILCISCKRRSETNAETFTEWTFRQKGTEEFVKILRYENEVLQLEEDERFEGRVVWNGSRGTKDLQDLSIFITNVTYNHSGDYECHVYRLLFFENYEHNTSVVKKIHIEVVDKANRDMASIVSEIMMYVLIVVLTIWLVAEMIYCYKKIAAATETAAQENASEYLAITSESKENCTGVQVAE
T1 sequence (Q99250 whole entry): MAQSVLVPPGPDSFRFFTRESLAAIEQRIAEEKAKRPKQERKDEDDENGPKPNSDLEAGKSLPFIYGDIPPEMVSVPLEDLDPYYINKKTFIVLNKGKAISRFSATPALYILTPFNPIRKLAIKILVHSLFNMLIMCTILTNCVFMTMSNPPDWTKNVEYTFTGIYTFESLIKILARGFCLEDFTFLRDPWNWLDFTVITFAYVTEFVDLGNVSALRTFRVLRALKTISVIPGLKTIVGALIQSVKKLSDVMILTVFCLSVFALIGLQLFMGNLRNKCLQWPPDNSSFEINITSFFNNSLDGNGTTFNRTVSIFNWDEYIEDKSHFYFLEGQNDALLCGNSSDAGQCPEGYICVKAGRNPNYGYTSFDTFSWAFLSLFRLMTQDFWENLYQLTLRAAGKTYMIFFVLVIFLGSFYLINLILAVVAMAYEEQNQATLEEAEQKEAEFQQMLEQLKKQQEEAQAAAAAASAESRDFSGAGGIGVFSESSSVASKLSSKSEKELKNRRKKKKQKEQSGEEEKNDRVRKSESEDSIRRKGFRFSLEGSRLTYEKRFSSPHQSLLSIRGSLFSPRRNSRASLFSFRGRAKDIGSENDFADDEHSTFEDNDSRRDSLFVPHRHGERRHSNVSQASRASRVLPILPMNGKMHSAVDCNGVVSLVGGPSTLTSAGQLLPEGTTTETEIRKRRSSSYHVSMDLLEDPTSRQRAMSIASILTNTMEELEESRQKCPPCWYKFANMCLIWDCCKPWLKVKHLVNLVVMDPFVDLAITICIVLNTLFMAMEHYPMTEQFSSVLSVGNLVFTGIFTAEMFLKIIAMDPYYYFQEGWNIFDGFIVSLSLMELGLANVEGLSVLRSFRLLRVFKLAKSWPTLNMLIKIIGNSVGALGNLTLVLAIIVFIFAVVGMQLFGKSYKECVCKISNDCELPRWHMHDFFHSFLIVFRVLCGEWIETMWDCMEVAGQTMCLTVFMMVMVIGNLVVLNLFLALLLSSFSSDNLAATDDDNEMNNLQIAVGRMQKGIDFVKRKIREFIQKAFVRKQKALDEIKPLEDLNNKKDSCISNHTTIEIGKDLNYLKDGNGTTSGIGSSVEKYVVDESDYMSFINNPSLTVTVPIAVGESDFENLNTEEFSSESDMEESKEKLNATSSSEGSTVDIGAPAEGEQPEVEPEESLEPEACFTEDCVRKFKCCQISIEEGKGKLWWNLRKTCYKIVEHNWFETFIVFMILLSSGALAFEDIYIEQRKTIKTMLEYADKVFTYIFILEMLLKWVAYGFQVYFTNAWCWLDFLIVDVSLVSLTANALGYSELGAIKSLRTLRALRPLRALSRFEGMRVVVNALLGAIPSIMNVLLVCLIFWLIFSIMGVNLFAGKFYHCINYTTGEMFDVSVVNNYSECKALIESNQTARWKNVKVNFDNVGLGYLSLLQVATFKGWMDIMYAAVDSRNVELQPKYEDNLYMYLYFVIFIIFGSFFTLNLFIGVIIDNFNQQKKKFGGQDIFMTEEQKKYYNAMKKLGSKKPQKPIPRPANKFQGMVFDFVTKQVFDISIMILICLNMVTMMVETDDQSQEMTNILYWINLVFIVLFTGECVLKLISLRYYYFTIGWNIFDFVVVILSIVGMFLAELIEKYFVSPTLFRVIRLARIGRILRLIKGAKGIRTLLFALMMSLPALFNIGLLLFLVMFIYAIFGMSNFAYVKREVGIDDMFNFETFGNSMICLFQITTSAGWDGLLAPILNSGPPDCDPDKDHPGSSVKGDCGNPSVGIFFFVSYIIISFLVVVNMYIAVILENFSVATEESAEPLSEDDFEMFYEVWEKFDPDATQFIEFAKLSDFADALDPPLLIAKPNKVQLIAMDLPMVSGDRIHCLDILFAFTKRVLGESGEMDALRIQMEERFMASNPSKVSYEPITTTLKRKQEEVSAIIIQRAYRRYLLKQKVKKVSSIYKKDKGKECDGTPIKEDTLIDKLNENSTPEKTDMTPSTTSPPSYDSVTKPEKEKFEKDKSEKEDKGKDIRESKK
Method: (§1) Human embryonic kidney 293 (HEK293) cells stably expressing recombinant hNaV1.2, hNaV1.3 and hNaV1.7 and the β1 auxiliary subunit (Scottish Biomedical Drug Discovery, Glasgow, UK) were cultured in Minimal Essential medium (MEM) (Sigma-Aldrich, MO, United States) supplemented with 10% v/v FBS-New Zealand origin (Assay Matrix), 2 mM L-glutamine and selection antibiotics as per manufacturer’s recommendation. The HEK293 cells heterologously expressing mNaV1.7 and F813G-mNaV1.7 were generously provided by Prof Irina Vetter and were cultured in Minimal Essential medium (MEM) (Sigma-Aldrich, MO, United States) supplemented with 10% v/v FBS-New Zealand origin (Assay Matrix), 2 mM L-glutamine and hygromycin 100 μg/mL.
(§2) NaV channel currents from HEK293 cells stably expressing NaV subtypes and the β1 auxiliary subunit were recorded using an automated whole-cell patch clamp system QPatch 16X (Sophion Bioscience A/S, Ballerup, Denmark). As per the manufacturer’s guidelines, the cells were cultured for 48 h to achieve ∼80% confluency, detached using Detachin (Genlantis) and resuspended to 5 × 10^6 cells/mL in serum free media [CHO-cell SFM (Life Technologies), 25 mM HEPES and 100 U/mL penicillin/streptomycin]. The extracellular solution comprised (in mM) 1 CaCl2, 1 MgCl2, 5 HEPES, 3 KCl, 140 NaCl and 20 TEA-Cl, with the pH adjusted to 7.3 with NaOH. The intracellular solution comprised (in mM) 140 CsF, 1 EGTA, 5 CsOH, 10 HEPES and 10 NaCl, with the pH adjusted to 7.3 with CsOH. The osmolarity of both solutions were adjusted to 320 mOsm with sucrose. Compounds were prepared in extracellular solution containing 0.1% bovine serum albumin (Sigma-Aldrich). To obtain the dose-response curves, cells were maintained at a holding potential −80 mV and Na^+ currents were elicited by […] voltage steps to 0 mV from a −120 mV conditioning pulse applied for […]. Increasing concentrations of the peptide were incubated with the cells at the holding potential for 2 min before the voltage protocol was applied.
(§3) The experimental data were analysed using QPatch Assay software v5.6.4 and GraphPad Prism 7.0 using a four-parameter Hill equation [Y = Bottom + (Top—Bottom)/(1 + 10^(Log IC50—X)* Hillslope)] to fit concentration response curves by non-linear regression analysis and Student’s t-test. Data are presented as means ± standard error of mean (SEM) with number of independent experiments stated and p < 0.05 is considered statistically significant. Statistically insignificant shift in the activity is denoted by “little” while small but statistically significant shift in the activity is denoted by “slight” throughout the manuscript.

hNaV1.3 = molecular target: T2, hNaV1.3 (Homo sapiens, UniProt Q9NY46); assay: Automated whole-cell patch-clamp (QPatch 16X), hNaV1.3; conditions: HEK293 cells expressing hNaV1.3 + β1 subunit; QPatch 16X; holding −80 mV, step to 0 mV; peptide incubated 2 min; 0.1% BSA; mean, SEM and n (3-12)
T2 construct: host or cells: HEK293
Method: as §1, §2, §3

hNaV1.7 = molecular target: T3, hNaV1.7 (Homo sapiens, UniProt Q15858); assay: Automated whole-cell patch-clamp (QPatch 16X), hNaV1.7; conditions: HEK293 cells expressing hNaV1.7 + β1 subunit; QPatch 16X; holding −80 mV, step to 0 mV; peptide incubated 2 min; 0.1% BSA; mean, SEM and n (3-9)
T3 construct: host or cells: HEK293
T3 sequence (Q15858 whole entry): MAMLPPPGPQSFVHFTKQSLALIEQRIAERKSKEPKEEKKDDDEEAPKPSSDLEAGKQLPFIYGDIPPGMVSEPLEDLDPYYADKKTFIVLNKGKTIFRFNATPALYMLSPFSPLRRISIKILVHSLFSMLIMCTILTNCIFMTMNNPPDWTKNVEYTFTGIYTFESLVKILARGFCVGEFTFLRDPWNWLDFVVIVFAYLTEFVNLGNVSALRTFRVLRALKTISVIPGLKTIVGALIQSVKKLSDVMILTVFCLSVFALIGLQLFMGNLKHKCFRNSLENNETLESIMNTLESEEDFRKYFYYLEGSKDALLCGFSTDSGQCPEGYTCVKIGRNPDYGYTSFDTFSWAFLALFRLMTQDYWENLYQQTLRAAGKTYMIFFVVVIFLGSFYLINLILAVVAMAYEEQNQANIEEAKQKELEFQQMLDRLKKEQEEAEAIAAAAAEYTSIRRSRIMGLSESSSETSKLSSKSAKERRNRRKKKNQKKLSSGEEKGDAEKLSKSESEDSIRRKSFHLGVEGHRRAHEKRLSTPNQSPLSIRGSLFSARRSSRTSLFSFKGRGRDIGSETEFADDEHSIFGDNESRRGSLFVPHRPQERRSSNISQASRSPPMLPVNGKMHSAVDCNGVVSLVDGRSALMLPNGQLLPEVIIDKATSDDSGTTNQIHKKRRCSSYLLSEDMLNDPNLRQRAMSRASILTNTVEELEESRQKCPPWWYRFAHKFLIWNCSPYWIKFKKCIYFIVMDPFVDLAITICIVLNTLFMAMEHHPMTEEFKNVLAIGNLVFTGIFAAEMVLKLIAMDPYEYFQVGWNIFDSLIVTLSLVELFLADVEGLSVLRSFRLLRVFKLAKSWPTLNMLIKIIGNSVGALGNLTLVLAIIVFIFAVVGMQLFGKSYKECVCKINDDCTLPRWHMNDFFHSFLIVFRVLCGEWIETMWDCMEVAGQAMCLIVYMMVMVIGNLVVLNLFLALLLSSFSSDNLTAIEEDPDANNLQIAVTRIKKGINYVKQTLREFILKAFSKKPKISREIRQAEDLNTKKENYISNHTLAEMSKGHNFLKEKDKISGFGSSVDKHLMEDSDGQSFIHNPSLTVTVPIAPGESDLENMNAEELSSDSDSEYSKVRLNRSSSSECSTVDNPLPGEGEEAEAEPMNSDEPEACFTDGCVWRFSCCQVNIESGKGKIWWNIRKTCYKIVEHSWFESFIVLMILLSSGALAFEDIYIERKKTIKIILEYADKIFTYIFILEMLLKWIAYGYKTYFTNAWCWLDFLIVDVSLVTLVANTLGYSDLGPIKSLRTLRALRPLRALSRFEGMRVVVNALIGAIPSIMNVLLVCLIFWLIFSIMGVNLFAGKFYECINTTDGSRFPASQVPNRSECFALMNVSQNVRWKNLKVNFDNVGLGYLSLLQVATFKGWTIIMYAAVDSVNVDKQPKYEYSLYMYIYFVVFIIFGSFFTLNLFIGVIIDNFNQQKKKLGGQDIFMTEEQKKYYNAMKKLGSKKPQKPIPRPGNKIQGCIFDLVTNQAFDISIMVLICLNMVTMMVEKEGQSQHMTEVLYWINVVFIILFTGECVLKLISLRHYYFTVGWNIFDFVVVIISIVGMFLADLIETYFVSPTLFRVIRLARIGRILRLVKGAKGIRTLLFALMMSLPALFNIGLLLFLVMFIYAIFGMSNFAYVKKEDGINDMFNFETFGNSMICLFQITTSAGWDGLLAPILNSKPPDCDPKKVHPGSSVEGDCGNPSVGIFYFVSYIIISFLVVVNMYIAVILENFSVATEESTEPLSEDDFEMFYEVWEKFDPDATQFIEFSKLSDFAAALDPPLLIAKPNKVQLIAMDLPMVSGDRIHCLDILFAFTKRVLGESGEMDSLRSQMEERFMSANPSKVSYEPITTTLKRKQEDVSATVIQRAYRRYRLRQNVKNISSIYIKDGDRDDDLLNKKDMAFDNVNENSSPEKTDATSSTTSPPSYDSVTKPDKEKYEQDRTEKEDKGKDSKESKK
T3 sequence (Q07699 19-218, further chain): as the sequence (Q07699 19-218) above
Method: as §1, §2, §3

Row | SMILES | pIC50 (hNaV1.2) | pIC50 (hNaV1.3) | pIC50 (hNaV1.7)
1 | CC(C)C[C@H](NC(=O)[C@H](Cc1ccc(O)cc1)NC(=O)[C@H](Cc1ccc(O)cc1)NC(=O)[C@H](CCCNC(=N)N)NC(=O)[C@@H]1CSSC[C@@H]2NC(=O)[C@H](CCCCN)NC(=O)[C@H](CC(N)=O)NC(=O)[C@H](CC(N)=O)NC(=O)[C@H](CC(N)=O)NC(=O)[C@@H]3CCCN3C(=O)[C@H](CC(=O)O)NC(=O)[C@@H]3CSSC[C@H](NC(=O)[C@H](C(C)C)NC(=O)[C@H](Cc4ccc(O)cc4)NC(=O)CNC(=O)[C@H](CCC(=O)O)NC(=O)[C@H](CSSC[C@H](NC(=O)CNC(=O)CN)C(=O)N[C@@H](CC(C)C)C(=O)NCC(=O)N[C@@H](Cc4c[nH]c5ccccc45)C(=O)N[C@@H](Cc4ccccc4)C(=O)N[C@@H](CO)C(=O)NCC(=O)N3)NC2=O)C(=O)N[C@@H](Cc2c[nH]cn2)C(=O)N[C@@H](Cc2c[nH]c3ccccc23)C(=O)N[C@@H](CCCCN)C(=O)N[C@@H](Cc2ccc(O)cc2)C(=O)N2CCC[C@H]2C(=O)N[C@@H](Cc2c[nH]c3ccccc23)C(=O)N1)C(=O)O [D1G/D32Y] (H-GGCLGWFSGCDPNNNKCCEGYVCHWKYPWCRYYL-OH; disulfide 3-18, 10-23, 17-30) | 7.07 | 6.95 | 7.04
2 | CC(C)C[C@H](NC(=O)[C@H](CC(=O)O)NC(=O)[C@H](Cc1ccc(O)cc1)NC(=O)[C@H](CCCNC(=N)N)NC(=O)[C@@H]1CSSC[C@@H]2NC(=O)[C@H](CCCCN)NC(=O)[C@H](CC(N)=O)NC(=O)[C@H](CC(N)=O)NC(=O)[C@H](CC(N)=O)NC(=O)[C@@H]3CCCN3C(=O)[C@H](CC(=O)O)NC(=O)[C@@H]3CSSC[C@H](NC(=O)[C@H](C(C)C)NC(=O)[C@H](Cc4ccc(O)cc4)NC(=O)CNC(=O)[C@H](CCC(=O)O)NC(=O)[C@H](CSSC[C@H](NC(=O)CNC(=O)CN)C(=O)N[C@@H](CC(C)C)C(=O)NCC(=O)N[C@@H](Cc4c[nH]c5ccccc45)C(=O)N[C@@H](Cc4ccccc4)C(=O)N[C@@H](CO)C(=O)NCC(=O)N3)NC2=O)C(=O)N[C@@H](Cc2c[nH]cn2)C(=O)N[C@@H](Cc2c[nH]c3ccccc23)C(=O)N[C@@H](CCCCN)C(=O)N[C@@H](Cc2ccc(O)cc2)C(=O)N2CCC[C@H]2C(=O)N[C@@H](Cc2c[nH]c3ccccc23)C(=O)N1)C(=O)O [D1G] | 6.72 | 6.30 | 6.51
3 | CC(C)C[C@H](NC(=O)[C@H](CC(=O)O)NC(=O)[C@H](Cc1ccc(O)cc1)NC(=O)[C@H](CCCNC(=N)N)NC(=O)[C@@H]1CSSC[C@@H]2NC(=O)[C@H](CCCCN)NC(=O)[C@H](CC(N)=O)NC(=O)[C@H](CC(N)=O)NC(=O)[C@H](CC(N)=O)NC(=O)[C@@H]3CCCN3C(=O)[C@H](CC(=O)O)NC(=O)[C@@H]3CSSC[C@H](NC(=O)[C@H](C(C)C)NC(=O)[C@H](Cc4ccc(O)cc4)NC(=O)CNC(=O)[C@H](CCC(=O)O)NC(=O)[C@H](CSSC[C@H](NC(=O)[C@H](CCCCN)NC(=O)CN)C(=O)N[C@@H](CC(C)C)C(=O)NCC(=O)N[C@@H](Cc4c[nH]c5ccccc45)C(=O)N[C@@H](Cc4ccccc4)C(=O)N[C@@H](CO)C(=O)NCC(=O)N3)NC2=O)C(=O)N[C@@H](Cc2c[nH]cn2)C(=O)N[C@@H](Cc2c[nH]c3ccccc23)C(=O)N[C@@H](CCCCN)C(=O)N[C@@H](Cc2ccc(O)cc2)C(=O)N2CCC[C@H]2C(=O)N[C@@H](Cc2c[nH]c3ccccc23)C(=O)N1)C(=O)O [D1K] | 7.01 | 6.71 | 6.62
4 | CC(C)C[C@H](NC(=O)[C@H](C)NC(=O)[C@H](Cc1ccc(O)cc1)NC(=O)[C@H](CCCNC(=N)N)NC(=O)[C@@H]1CSSC[C@@H]2NC(=O)[C@H](CCCCN)NC(=O)[C@H](CC(N)=O)NC(=O)[C@H](CC(N)=O)NC(=O)[C@H](CC(N)=O)NC(=O)[C@@H]3CCCN3C(=O)[C@H](CC(=O)O)NC(=O)[C@@H]3CSSC[C@H](NC(=O)[C@H](C(C)C)NC(=O)[C@H](Cc4ccc(O)cc4)NC(=O)CNC(=O)[C@H](CCC(=O)O)NC(=O)[C@H](CSSC[C@H](NC(=O)[C@H](CC(=O)O)NC(=O)CN)C(=O)N[C@@H](CC(C)C)C(=O)NCC(=O)N[C@@H](Cc4c[nH]c5ccccc45)C(=O)N[C@@H](Cc4ccccc4)C(=O)N[C@@H](CO)C(=O)NCC(=O)N3)NC2=O)C(=O)N[C@@H](Cc2c[nH]cn2)C(=O)N[C@@H](Cc2c[nH]c3ccccc23)C(=O)N[C@@H](CCCCN)C(=O)N[C@@H](Cc2ccc(O)cc2)C(=O)N2CCC[C@H]2C(=O)N[C@@H](Cc2c[nH]c3ccccc23)C(=O)N1)C(=O)O [D32A] | 6.96 | 6.66 | 6.93
5 | CC(C)C[C@H](NC(=O)[C@H](Cc1ccccc1)NC(=O)[C@H](Cc1ccc(O)cc1)NC(=O)[C@H](CCCNC(=N)N)NC(=O)[C@@H]1CSSC[C@@H]2NC(=O)[C@H](CCCCN)NC(=O)[C@H](CC(N)=O)NC(=O)[C@H](CC(N)=O)NC(=O)[C@H](CC(N)=O)NC(=O)[C@@H]3CCCN3C(=O)[C@H](CC(=O)O)NC(=O)[C@@H]3CSSC[C@H](NC(=O)[C@H](C(C)C)NC(=O)[C@H](Cc4ccc(O)cc4)NC(=O)CNC(=O)[C@H](CCC(=O)O)NC(=O)[C@H](CSSC[C@H](NC(=O)[C@H](CC(=O)O)NC(=O)CN)C(=O)N[C@@H](CC(C)C)C(=O)NCC(=O)N[C@@H](Cc4c[nH]c5ccccc45)C(=O)N[C@@H](Cc4ccccc4)C(=O)N[C@@H](CO)C(=O)NCC(=O)N3)NC2=O)C(=O)N[C@@H](Cc2c[nH]cn2)C(=O)N[C@@H](Cc2c[nH]c3ccccc23)C(=O)N[C@@H](CCCCN)C(=O)N[C@@H](Cc2ccc(O)cc2)C(=O)N2CCC[C@H]2C(=O)N[C@@H](Cc2c[nH]c3ccccc23)C(=O)N1)C(=O)O [D32F] | 6.66 | 6.79 | 6.69
6 | CC(C)C[C@H](NC(=O)[C@H](CCCCN)NC(=O)[C@H](Cc1ccc(O)cc1)NC(=O)[C@H](CCCNC(=N)N)NC(=O)[C@@H]1CSSC[C@@H]2NC(=O)[C@H](CCCCN)NC(=O)[C@H](CC(N)=O)NC(=O)[C@H](CC(N)=O)NC(=O)[C@H](CC(N)=O)NC(=O)[C@@H]3CCCN3C(=O)[C@H](CC(=O)O)NC(=O)[C@@H]3CSSC[C@H](NC(=O)[C@H](C(C)C)NC(=O)[C@H](Cc4ccc(O)cc4)NC(=O)CNC(=O)[C@H](CCC(=O)O)NC(=O)[C@H](CSSC[C@H](NC(=O)[C@H](CC(=O)O)NC(=O)CN)C(=O)N[C@@H](CC(C)C)C(=O)NCC(=O)N[C@@H](Cc4c[nH]c5ccccc45)C(=O)N[C@@H](Cc4ccccc4)C(=O)N[C@@H](CO)C(=O)NCC(=O)N3)NC2=O)C(=O)N[C@@H](Cc2c[nH]cn2)C(=O)N[C@@H](Cc2c[nH]c3ccccc23)C(=O)N[C@@H](CCCCN)C(=O)N[C@@H](Cc2ccc(O)cc2)C(=O)N2CCC[C@H]2C(=O)N[C@@H](Cc2c[nH]c3ccccc23)C(=O)N1)C(=O)O [D32K] | 7.12 | 7.01 | 7.07
7 | CC(C)C[C@H](NC(=O)[C@H](CO)NC(=O)[C@H](Cc1ccc(O)cc1)NC(=O)[C@H](CCCNC(=N)N)NC(=O)[C@@H]1CSSC[C@@H]2NC(=O)[C@H](CCCCN)NC(=O)[C@H](CC(N)=O)NC(=O)[C@H](CC(N)=O)NC(=O)[C@H](CC(N)=O)NC(=O)[C@@H]3CCCN3C(=O)[C@H](CC(=O)O)NC(=O)[C@@H]3CSSC[C@H](NC(=O)[C@H](C(C)C)NC(=O)[C@H](Cc4ccc(O)cc4)NC(=O)CNC(=O)[C@H](CCC(=O)O)NC(=O)[C@H](CSSC[C@H](NC(=O)[C@H](CC(=O)O)NC(=O)CN)C(=O)N[C@@H](CC(C)C)C(=O)NCC(=O)N[C@@H](Cc4c[nH]c5ccccc45)C(=O)N[C@@H](Cc4ccccc4)C(=O)N[C@@H](CO)C(=O)NCC(=O)N3)NC2=O)C(=O)N[C@@H](Cc2c[nH]cn2)C(=O)N[C@@H](Cc2c[nH]c3ccccc23)C(=O)N[C@@H](CCCCN)C(=O)N[C@@H](Cc2ccc(O)cc2)C(=O)N2CCC[C@H]2C(=O)N[C@@H](Cc2c[nH]c3ccccc23)C(=O)N1)C(=O)O [D32S] | 7.01 | 6.86 | 7.00
